Tests used:
[1] = test system: 3-month-old C57BL/6 mice; assay: Excitatory post-synaptic potentials (EPSP) induced by electrical stimulation in alert mice (perforant pathway / dentate gyrus of the hippocampus); format: in vivo; details: single dose p.o.: Compound S 3 mg/kg, rivastigmine 0.03 mg/kg, alone or in association
Description: Studying EPSPs induced by electrical stimulation in alert mice makes it possible to study physiologically an electrophysiological phenomenon which is the basis of neuronal activity and connected to the processes of memorisation and learning.
3-month-old C57BL/6 mice are anaesthetised with 0.8-3% halothane delivered by means of a mask. Once anaesthetised, stimulation and recording electrodes are inserted, respectively, in the perforant pathway and the dentate gyrus of the hippocampus of the animals. Following implantation of the electrodes, the mice are kept in cages for from 5 to 7 days with free access to food and water in order to allow complete recovery. Each implanted animal is alone in a cage until the end of the experiment.
After recovery, a stable baseline of evoked responses is induced using paired pulses (pulse duration 100 μs, negative-positive) administered at 3 pulses/minute to the stimulation electrode situated in the perforant pathway. The intervals between pulses are fixed at 40 ms (Gruart et al., J. Neurosci. 2006, 24, 1077-1087). The field EPSPs are monitored until a stable baseline is obtained (for 30 minutes). The products or the carrier are then administered, and the evoked field potentials are recorded. […] The evoked potentials are then recorded for approximately 2.5 hours after the last administration of compound or carrier.

[2] = test system: C57BL/6 mice having an average age of 14-15 months; assay: Contextual serial discrimination test (model of episodic memory); format: in vivo; details: for percentage of correct responses: chronic treatment for 9 days, middle-aged mice, carrier 26.4%
Excerpt: The effects of 8-cyclopropyl-3-[2-(3-fluorophenyl)ethyl]-7,8-dihydro-3H-[1,3]oxazino-[6,5-g][1,2,3]benzotriazine-4,9-dione and of donepezil (the latter used in the form of a hydrochloride), administered on their own or in combination, were studied using a contextual serial discrimination test in C57BL/6 mice having an average age of 14-15 months (n=12 per group) (Célérier et al., Learn Mem. 2004, 11(2), 196-204; Tronche et al., Behav. Brain Res. 2010, 215(2), 255-260).
The mice, placed in a high-sided box, learn two types of consecutive spatial discriminations (D1: white floor then D2: black floor) on a floor having four holes, in which only one of the holes is baited, opposite holes being baited in D1 and D2. Each discrimination is performed on a specific floor (white or black), which constitutes the internal context specific to each discrimination. Twenty-four hours after the learning step, the mice are returned to the white contextual floor and the following parameters are measured: • the percentage of correct responses (i.e. % of head dips in the hole that had been baited during the acquisition exercise on the white floor), • the percentage of interfering responses (i.e. % of head dips in the hole that had been baited during the acquisition exercise on the black floor, the last context presented to the mice), • and the percentage of errors (i.e. % of head dips in the two holes that had not been baited during the acquisition, either on the white floor or on the black floor) (see FIG. 1).

[3] = test system: C57BL/6 mice; assay: Irwin's primary observation test; details: on its own
Description: The effects in terms of safety of 8-cyclopropyl-3-[2-(3-fluorophenyl)ethyl]-7,8-dihydro-3H-[1,3]oxazino[6,5-g][1,2,3]benzotriazine-4,9-dione and of donepezil (the latter in the form of a hydrochloride), administered on their own or in association, were studied using Irwin's primary observation test in C57BL/6 mice (n=4 individuals per group). Behavioural changes, physiological and neurotoxic symptoms, rectal temperature and also pupil diameter were recorded using a standardised observation grid derived from that of Irwin.

Row | SMILES | amplitudes of the field EPSPs relative to the carrier group [1] | change in percentage of correct responses relative to the carrier ([2]; 0.1 mg/kg of base per os, 9 days) | percentage of correct responses ([2]; 0.1 mg/kg per os) | change according to the standardised observation grid ([3]; 0.3 and 1 mg/kg of base per os, acute) | change according to the standardised observation grid ([3]; 3 and 10 mg/kg of base per os) | percentage of correct responses ([2]; 0.3 mg/kg per os) | increase in level of correct responses relative to the carrier ([2]; doses of 0.1 and 0.3 mg/kg per os, 9 days, significant)
1 | CCN(C)C(=O)Oc1cccc([C@H](C)N(C)C)c1 [rivastigmine] | does not induce a significant modification | – | – | – | – | – | –
2 | COc1cc2c(cc1OC)C(=O)C(CC1CCN(Cc3ccccc3)CC1)C2 (stereo not drawn) [donepezil] | – | slight non-significant increase | 35.5% | do not induce any change | induces shaking, slight to moderate sedation, a loss of muscle tone and a decrease in reactivity to touch | – | –
3 | O=C1c2cc3nnn(CCc4cccc(F)c4)c(=O)c3cc2OCN1C1CC1 [Compound S, 8-cyclopropyl-3-[2-(3-fluorophenyl)ethyl]-7,8-dihydro-3H-[1,3]oxazino[6,5-g][1,2,3]benzotriazine-4,9-dione] | does not induce a significant modification | – | 43.7% | – | – | 48% | more than 40%

Reference: US20170027949A1, “ASSOCIATION BETWEEN 8-CYCLOPROPYL-3-[2-(3-FLUOROPHENYL)ETHYL]-7,8-DIHYDRO-3H-[1,3]OXAZINO[6,5-g][1,2,3]BENZOTRIAZINE-4,9-DIONE AND AN ACETYLCHOLINESTERASE INHIBITOR, AND PHARMACEUTICAL COMPOSITIONS CONTAINING IT” (priority 2014, published 2017)
